Experimental data: the NIST ThermoML archive (doi:10.1016/j.jct.2012.03.003)

Assay: xn = mol fraction of the nth substance listed
Details: Liquid, Vibrating tube method

COc1cc2c(cc1O)CC1c3c(cc(O)c(OC)c3-2)CCN1C (stereo not given) [boldine] + CCCO
Details | mass density [kg/m3]
313.09 K, 1000 kPa, x1 = 0.0142 | 812.51
313.09 K, 2000 kPa, x1 = 0.0142 | 813.26
313.09 K, 3000 kPa, x1 = 0.0142 | 814.02
313.09 K, 4000 kPa, x1 = 0.0142 | 814.8
313.09 K, 5000 kPa, x1 = 0.0142 | 815.58
313.09 K, 6000 kPa, x1 = 0.0142 | 816.36
313.09 K, 7000 kPa, x1 = 0.0142 | 817.15
313.09 K, 8000 kPa, x1 = 0.0142 | 817.95
313.09 K, 9000 kPa, x1 = 0.0142 | 818.75
313.09 K, 10000 kPa, x1 = 0.0142 | 819.54
313.09 K, 11000 kPa, x1 = 0.0142 | 820.32
313.09 K, 12000 kPa, x1 = 0.0142 | 821.12
313.09 K, 13000 kPa, x1 = 0.0142 | 821.89
313.09 K, 14000 kPa, x1 = 0.0142 | 822.65
313.09 K, 15000 kPa, x1 = 0.0142 | 823.42
313.09 K, 16000 kPa, x1 = 0.0142 | 824.16
313.09 K, 17000 kPa, x1 = 0.0142 | 824.91
313.09 K, 18000 kPa, x1 = 0.0142 | 825.63
313.09 K, 19000 kPa, x1 = 0.0142 | 826.34
313.09 K, 20000 kPa, x1 = 0.0142 | 827.03
313.14 K, 1000 kPa, x1 = 0.0046 | 797.2
313.14 K, 2000 kPa, x1 = 0.0046 | 797.97
313.14 K, 3000 kPa, x1 = 0.0046 | 798.75
313.14 K, 4000 kPa, x1 = 0.0046 | 799.53
313.14 K, 5000 kPa, x1 = 0.0046 | 800.32
313.14 K, 6000 kPa, x1 = 0.0046 | 801.13
313.14 K, 7000 kPa, x1 = 0.0046 | 801.93
313.14 K, 8000 kPa, x1 = 0.0046 | 802.74
313.14 K, 9000 kPa, x1 = 0.0046 | 803.55
313.14 K, 10000 kPa, x1 = 0.0046 | 804.36
313.14 K, 11000 kPa, x1 = 0.0046 | 805.17
313.14 K, 12000 kPa, x1 = 0.0046 | 805.97
313.14 K, 13000 kPa, x1 = 0.0046 | 806.77
313.14 K, 14000 kPa, x1 = 0.0046 | 807.55
313.14 K, 15000 kPa, x1 = 0.0046 | 808.32
313.14 K, 16000 kPa, x1 = 0.0046 | 809.08
313.14 K, 17000 kPa, x1 = 0.0046 | 809.85
313.14 K, 18000 kPa, x1 = 0.0046 | 810.58
313.14 K, 19000 kPa, x1 = 0.0046 | 811.3
313.14 K, 20000 kPa, x1 = 0.0046 | 812.01
313.15 K, 1000 kPa, x1 = 0.0018 | 790.99
313.15 K, 1000 kPa, x1 = 0.0077 | 801.14
313.15 K, 1000 kPa, x1 = 0.0112 | 807.94
313.15 K, 2000 kPa, x1 = 0.0018 | 791.76
313.15 K, 2000 kPa, x1 = 0.0077 | 801.89
313.15 K, 2000 kPa, x1 = 0.0112 | 808.71
313.15 K, 3000 kPa, x1 = 0.0018 | 792.55
313.15 K, 3000 kPa, x1 = 0.0077 | 802.66
313.15 K, 3000 kPa, x1 = 0.0112 | 809.47
313.15 K, 4000 kPa, x1 = 0.0018 | 793.33
313.15 K, 4000 kPa, x1 = 0.0077 | 803.44
313.15 K, 4000 kPa, x1 = 0.0112 | 810.25
313.15 K, 5000 kPa, x1 = 0.0018 | 794.13
313.15 K, 5000 kPa, x1 = 0.0077 | 804.23
313.15 K, 5000 kPa, x1 = 0.0112 | 811.06
313.15 K, 6000 kPa, x1 = 0.0018 | 794.94
313.15 K, 6000 kPa, x1 = 0.0077 | 805.03
313.15 K, 6000 kPa, x1 = 0.0112 | 811.83
313.15 K, 7000 kPa, x1 = 0.0018 | 795.75
313.15 K, 7000 kPa, x1 = 0.0077 | 805.83
313.15 K, 7000 kPa, x1 = 0.0112 | 812.63
313.15 K, 8000 kPa, x1 = 0.0018 | 796.57
313.15 K, 8000 kPa, x1 = 0.0077 | 806.63
313.15 K, 8000 kPa, x1 = 0.0112 | 813.42
313.15 K, 9000 kPa, x1 = 0.0018 | 797.38
313.15 K, 9000 kPa, x1 = 0.0077 | 807.44
313.15 K, 9000 kPa, x1 = 0.0112 | 814.2
313.15 K, 10000 kPa, x1 = 0.0018 | 798.19
313.15 K, 10000 kPa, x1 = 0.0077 | 808.25
313.15 K, 10000 kPa, x1 = 0.0112 | 815
313.15 K, 11000 kPa, x1 = 0.0018 | 799.01
313.15 K, 11000 kPa, x1 = 0.0077 | 809.05
313.15 K, 11000 kPa, x1 = 0.0112 | 815.81
313.15 K, 12000 kPa, x1 = 0.0018 | 799.83
313.15 K, 12000 kPa, x1 = 0.0077 | 809.85
313.15 K, 12000 kPa, x1 = 0.0112 | 816.58
313.15 K, 13000 kPa, x1 = 0.0018 | 800.62
313.15 K, 13000 kPa, x1 = 0.0077 | 810.64
313.15 K, 13000 kPa, x1 = 0.0112 | 817.36
313.15 K, 14000 kPa, x1 = 0.0018 | 801.41
313.15 K, 14000 kPa, x1 = 0.0077 | 811.41
313.15 K, 14000 kPa, x1 = 0.0112 | 818.14
313.15 K, 15000 kPa, x1 = 0.0018 | 802.19
313.15 K, 15000 kPa, x1 = 0.0077 | 812.18
313.15 K, 15000 kPa, x1 = 0.0112 | 818.89
313.15 K, 16000 kPa, x1 = 0.0018 | 802.95
313.15 K, 16000 kPa, x1 = 0.0077 | 812.94
313.15 K, 16000 kPa, x1 = 0.0112 | 819.65
313.15 K, 17000 kPa, x1 = 0.0018 | 803.72
313.15 K, 17000 kPa, x1 = 0.0077 | 813.69
313.15 K, 17000 kPa, x1 = 0.0112 | 820.39
313.15 K, 18000 kPa, x1 = 0.0018 | 804.46
313.15 K, 18000 kPa, x1 = 0.0077 | 814.42
313.15 K, 18000 kPa, x1 = 0.0112 | 821.12
313.15 K, 19000 kPa, x1 = 0.0018 | 805.19
313.15 K, 19000 kPa, x1 = 0.0077 | 815.14
313.15 K, 19000 kPa, x1 = 0.0112 | 821.85
313.15 K, 20000 kPa, x1 = 0.0018 | 805.9
313.15 K, 20000 kPa, x1 = 0.0077 | 815.85
313.15 K, 20000 kPa, x1 = 0.0112 | 822.53
323.1 K, 1000 kPa, x1 = 0.0018 | 782.67
323.1 K, 2000 kPa, x1 = 0.0018 | 783.52
323.1 K, 3000 kPa, x1 = 0.0018 | 784.36
323.1 K, 4000 kPa, x1 = 0.0018 | 785.2
323.1 K, 5000 kPa, x1 = 0.0018 | 786.06
323.1 K, 6000 kPa, x1 = 0.0018 | 786.91
323.1 K, 7000 kPa, x1 = 0.0018 | 787.78
323.1 K, 8000 kPa, x1 = 0.0018 | 788.64
323.1 K, 9000 kPa, x1 = 0.0018 | 789.49
323.1 K, 10000 kPa, x1 = 0.0018 | 790.35
323.1 K, 11000 kPa, x1 = 0.0018 | 791.2
323.1 K, 12000 kPa, x1 = 0.0018 | 792.05
323.1 K, 13000 kPa, x1 = 0.0018 | 792.88
323.1 K, 14000 kPa, x1 = 0.0018 | 793.69
323.1 K, 15000 kPa, x1 = 0.0018 | 794.51
323.1 K, 16000 kPa, x1 = 0.0018 | 795.32
323.1 K, 17000 kPa, x1 = 0.0018 | 796.1
323.1 K, 18000 kPa, x1 = 0.0018 | 796.89
323.1 K, 19000 kPa, x1 = 0.0018 | 797.65
323.1 K, 20000 kPa, x1 = 0.0018 | 798.39
323.11 K, 1000 kPa, x1 = 0.0112 | 799.52
323.11 K, 1000 kPa, x1 = 0.0142 | 804.17
323.11 K, 2000 kPa, x1 = 0.0112 | 800.32
323.11 K, 2000 kPa, x1 = 0.0142 | 804.99
323.11 K, 3000 kPa, x1 = 0.0112 | 801.16
323.11 K, 3000 kPa, x1 = 0.0142 | 805.81
323.11 K, 4000 kPa, x1 = 0.0112 | 801.99
323.11 K, 4000 kPa, x1 = 0.0142 | 806.63
323.11 K, 5000 kPa, x1 = 0.0112 | 802.82
323.11 K, 5000 kPa, x1 = 0.0142 | 807.51
323.11 K, 6000 kPa, x1 = 0.0112 | 803.66
323.11 K, 6000 kPa, x1 = 0.0142 | 808.3
323.11 K, 7000 kPa, x1 = 0.0112 | 804.52
323.11 K, 7000 kPa, x1 = 0.0142 | 809.14
323.11 K, 8000 kPa, x1 = 0.0112 | 805.34
323.11 K, 8000 kPa, x1 = 0.0142 | 809.97
323.11 K, 9000 kPa, x1 = 0.0112 | 806.15
323.11 K, 9000 kPa, x1 = 0.0142 | 810.81
323.11 K, 10000 kPa, x1 = 0.0112 | 807.01
323.11 K, 10000 kPa, x1 = 0.0142 | 811.64
323.11 K, 11000 kPa, x1 = 0.0112 | 807.85
323.11 K, 11000 kPa, x1 = 0.0142 | 812.47
323.11 K, 12000 kPa, x1 = 0.0112 | 808.67
323.11 K, 12000 kPa, x1 = 0.0142 | 813.28
323.11 K, 13000 kPa, x1 = 0.0112 | 809.47
323.11 K, 13000 kPa, x1 = 0.0142 | 814.1
323.11 K, 14000 kPa, x1 = 0.0112 | 810.29
323.11 K, 14000 kPa, x1 = 0.0142 | 814.89
323.11 K, 15000 kPa, x1 = 0.0112 | 811.07
323.11 K, 15000 kPa, x1 = 0.0142 | 815.69
